The results in this text go back to patent US9737559B2, “Synergistic anti-diabetic compositions” (Ozstar Therapeutics Pty Ltd, priority 2011, dated 2017).

Structures are written as SMILES.

Assay type in all cases: in vivo, human
Assay [1] deals with patient with T2DM. Briefly: Glimepiride/inulin combination therapy, T2DM case report, FBG. How it is done:
Doctor recommended diet-only treatment. […] The dose was increased in a 1 mg increment and currently this patient is taking 4 mg once daily Glimepiride. [table] Blood sugar level was determined using Accu-Chek Performa (Roche, Mannheim, Germany) device (CAT/TYP 04680464003 mmol/L and 55405079196) according to manufacturer instructions. During baseline measurements of FBG levels, patient was on Glimepiride at the dose of 4 mg once daily.

Assay [2] concerns patient with T2DM. Briefly: Glipizide/inulin combination therapy, T2DM case report, FBG. As to the method: person, with body mass index of 29 classified as overweight, with the family history of T2DM.
[…] the patient was diagnosed with T2DM. Doctor recommended diet-only treatment. […] due to increased FBG levels the patient was treated with Glipizide (5 mg/day, 5 mg once daily). The dose was increased in a 5 mg increment and currently this patient is taking 15 mg/day, 5 mg three times a day, Glipizide.
Blood sugar level was determined using Accu-Chek Performs (Roche, Mannheim, Germany) device (CAT/TYP 04680464002 mmol/L and 55403057614) according to manufacturer instructions.
During baseline measurements of FBG level, patient was on Glipizide at the dose of 15 mg per day.
inulin introduced at 3 g/day (1 g with each meal, 3 times a day) for one week. Inulin amount was increased to 6 g/day (2 g with each meal, 3 times a day) at week 2, 9 g/day (3 g with each meal, 3 times a day) at week 3 and 12 g/day (4 g with each meal, 3 times a day) at week 4.
Patient continued taking inulin with meal at 4 g/meal (12 gr/day total).

In assay [3] the test system is patient with T2DM. The assay can be described thus: Gliclazide/inulin combination therapy, extended case report: FBG, HA1C and lipid profiles. The note with it: Gliclazide 30 mg once daily for nearly a decade, before inulin. The source says: This patient began the combination therapy with a commercially available inulin (Cl) as previously described in PCT/AU2011/000622, the contents of which are incorporated herein in their entirety. Various blood parameter measurements were as described PCT/AU2011/000622.

Regarding `CCC1=C(C)CN(C(=O)NCCc2ccc(S(=O)(=O)NC(=O)N[C@H]3CC[C@H](C)CC3)cc2)C1=O` [Glimepiride], the FBG at baseline with patient with T2DM [1] (Glimepiride 4 mg once daily, no inulin, June 2011) was about 8 mmol/L. Moreover, the “FBG level prior to inulin combination therapy” value in the assay on patient with T2DM [1] (Glimepiride monotherapy, a couple of years prior to inulin) is “above 7 mmol/L”.
Consider `Cc1cnc(C(=O)NCCc2ccc(S(=O)(=O)NC(=O)NC3CCCCC3)cc2)cn1` [Glipizide], for which the FBG at baseline in the assay with patient with T2DM [2] (Glipizide 15 mg per day, no inulin, July 2011) was about 6.5 mmol/L. In addition, the “FBG level prior to inulin combination therapy” value with patient with T2DM [2] (Glipizide monotherapy, a couple of years prior to inulin) is recorded as “around 7 mmol/L”.
As to `Cc1ccc(S(=O)(=O)NC(=O)NN2CC3CCCC3C2)cc1` (centres unmarked) [Gliclazide], in the assay with patient with T2DM [3], the blood glucose levels entry is recorded as “above 9 mmol/L”.
